How the values were obtained:
H1975 = test: In vitro cell proliferation assay (MTT); type: cell-based; details: Homo sapiens, NCI-H1975, 72 h
Description: (§1) Cancer cell lines (5×10^3 cells per well) or HUVEC (1×10^4 cells per well) or HRMEC (1×10^4 cells per well) were distributed in 96-well plates and incubating in duplicate with escalating concentrations (10 nM to 3 μM) of compounds for 72 hr. Cell proliferation was measured using MTT (3 [4,5-dimethylthiazol-2-yl]-2,5-diphenyltetrazolium bromide).

HUVEC = test: In vitro cell proliferation assay (MTT); type: cell-based; details: Homo sapiens, 72 h
Description: as §1

BxPC-3 = test: In vitro cell proliferation assay (MTT); type: cell-based; details: Homo sapiens, BXPC-3, 72 h
Description: as §1

HepG2 = test: In vitro cell proliferation assay (MTT); type: cell-based; details: Homo sapiens, HepG2, 72 h
Description: as §1

A549 = test: In vitro cell proliferation assay (MTT); type: cell-based; details: Homo sapiens, A549, 72 h
Description: as §1

HT29 = test: In vitro cell proliferation assay (MTT); type: cell-based; details: Homo sapiens, HT-29, 72 h
Description: as §1

EGFR (ErbB1) T790M L858R = biological target: T1, EGFR (ErbB1) T790M L858R (Homo sapiens, UniProt P00533, L858R/T790M); test: In vitro kinase assay (Z′-LYTE); type: biochemical; details: read-out: % of inhibition of the kinase compared to the control
T1 construct: purchased Invitrogen
Description: (§2) The inhibitory activity of the compounds on several kinases including BRAF, EGFR (ErbB1), EGFR (ErbB1) T790M L858R, FGFR2, KDR (VEGFR2), PDGFRA (PDGFR alpha), SRC and other was evaluated by Invitrogen using the Z′-LYTE® technology. Briefly, the Z′-LYTE® biochemical assay employs a fluorescence-based, coupled-enzyme format and is based on the differential sensitivity of phosphorylated and non-phosphorylated peptides to proteolytic cleavage. The peptide substrate is labeled with two fluorophores—one at each end—that make up a FRET pair. A ratiometric method, which calculates the ratio (the Emission Ratio) of donor emission to acceptor emission after excitation of the donor fluorophore at 400 nm, is used to quantitate reaction progress.
(§3) The compounds are screened in 1% DMSO (final) in the well. For 10 point titrations, 3-fold serial dilutions are conducted from the starting concentration. All Peptide/Kinase Mixtures are diluted to a 2× working concentration in the appropriate Kinase Buffer. All ATP Solutions are diluted to a 4× working concentration in Kinase Buffer (50 mM HEPES pH 7.5, 0.01% BRIJ-35, 10 mM MgCl2, 1 mM EGTA). ATP Km apparent is previously determined using a Z′-LYTE® assay.
(§4) Each compound was incubated at a concentration of 100 nM (excepted to test the activity against ABL and ABL T315I for which the compounds were incubated at a concentration of 10 μM) and the tables B1 to B12 summarize the results obtained showing the inhibitory power of a compound. The inhibitory activity of OR0512 was also investigated using the same assays and the kinases for which activity was inhibited at more than 50% at the concentration of 100 nM of OR0512 are listed in the table B13.

KDR (VEGFR2) = biological target: T2, KDR (VEGFR2) (Homo sapiens, UniProt P35968); test: In vitro kinase assay (Z′-LYTE); type: biochemical; details: read-out: % of inhibition of the kinase compared to the control
T2 construct: purchased Invitrogen
T2 sequence (P35968 20-1356): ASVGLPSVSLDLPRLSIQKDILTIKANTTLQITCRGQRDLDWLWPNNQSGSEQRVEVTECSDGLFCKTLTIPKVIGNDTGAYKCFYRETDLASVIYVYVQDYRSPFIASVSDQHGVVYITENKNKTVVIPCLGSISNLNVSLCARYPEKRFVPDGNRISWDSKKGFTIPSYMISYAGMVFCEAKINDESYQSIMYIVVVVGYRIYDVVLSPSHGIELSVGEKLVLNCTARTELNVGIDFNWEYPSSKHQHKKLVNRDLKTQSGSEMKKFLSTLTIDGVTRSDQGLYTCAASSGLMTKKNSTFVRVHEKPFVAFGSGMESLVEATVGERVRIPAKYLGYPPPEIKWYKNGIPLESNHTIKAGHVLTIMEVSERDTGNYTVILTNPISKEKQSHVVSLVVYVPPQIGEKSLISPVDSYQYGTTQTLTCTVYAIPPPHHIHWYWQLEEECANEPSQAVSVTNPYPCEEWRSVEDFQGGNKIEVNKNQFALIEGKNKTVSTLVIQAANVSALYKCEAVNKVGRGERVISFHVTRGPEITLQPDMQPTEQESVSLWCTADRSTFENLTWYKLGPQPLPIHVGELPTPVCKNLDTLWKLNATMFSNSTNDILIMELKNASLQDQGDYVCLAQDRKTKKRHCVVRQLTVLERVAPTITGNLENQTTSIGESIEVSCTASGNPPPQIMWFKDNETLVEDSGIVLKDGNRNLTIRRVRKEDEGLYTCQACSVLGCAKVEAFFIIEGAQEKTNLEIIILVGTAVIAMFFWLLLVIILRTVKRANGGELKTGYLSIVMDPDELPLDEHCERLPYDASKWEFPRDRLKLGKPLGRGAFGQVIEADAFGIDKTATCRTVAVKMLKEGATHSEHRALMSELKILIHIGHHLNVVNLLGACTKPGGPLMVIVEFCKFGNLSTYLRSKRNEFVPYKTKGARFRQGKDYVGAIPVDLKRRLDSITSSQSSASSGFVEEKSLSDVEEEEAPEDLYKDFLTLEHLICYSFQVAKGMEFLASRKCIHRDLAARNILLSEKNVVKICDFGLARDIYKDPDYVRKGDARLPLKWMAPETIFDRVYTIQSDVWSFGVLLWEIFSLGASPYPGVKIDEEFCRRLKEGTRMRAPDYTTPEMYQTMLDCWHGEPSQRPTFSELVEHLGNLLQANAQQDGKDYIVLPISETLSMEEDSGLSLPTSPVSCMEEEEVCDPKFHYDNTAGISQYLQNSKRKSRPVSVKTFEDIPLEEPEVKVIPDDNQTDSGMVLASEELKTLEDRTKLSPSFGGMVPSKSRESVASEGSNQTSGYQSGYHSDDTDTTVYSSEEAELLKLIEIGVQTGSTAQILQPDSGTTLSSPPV
Description: as §2, §3, §4

VEGFR1 = biological target: T3, VEGFR1 (Homo sapiens, UniProt P17948); test: In vitro kinase assay (Z′-LYTE); type: biochemical; details: read-out: % of inhibition of the kinase compared to the control
T3 construct: purchased Invitrogen
Description: as §2, §3, §4

ABL T315I = biological target: T4, ABL T315I (Homo sapiens, UniProt P00519, T315I); test: In vitro kinase assay (Z′-LYTE); type: biochemical; details: read-out: % of inhibition of the kinase compared to the control
T4 construct: purchased Invitrogen
Description: as §2, §3, §4

BRAF = biological target: T5, BRAF (Homo sapiens, UniProt P15056); test: In vitro kinase assay (Z′-LYTE); type: biochemical; details: compound 100 nM; ATP 100 μM; read-out: % of inhibition of the kinase compared to the control
T5 construct: purchased Invitrogen
Description: as §2, §3, §4

PDGFRA (PDGFR alpha) = biological target: T6, PDGFRA (PDGFR alpha) (Homo sapiens, UniProt P16234); test: In vitro kinase assay (Z′-LYTE); type: biochemical; details: read-out: % of inhibition of the kinase compared to the control
T6 construct: purchased Invitrogen
Description: as §2, §3, §4

EGFR (ErbB1) = biological target: T7, EGFR (ErbB1) (Homo sapiens, UniProt P00533); test: In vitro kinase assay (Z′-LYTE); type: biochemical; details: read-out: % of inhibition of the kinase compared to the control
T7 construct: purchased Invitrogen
T7 sequence (P00533 25-1210): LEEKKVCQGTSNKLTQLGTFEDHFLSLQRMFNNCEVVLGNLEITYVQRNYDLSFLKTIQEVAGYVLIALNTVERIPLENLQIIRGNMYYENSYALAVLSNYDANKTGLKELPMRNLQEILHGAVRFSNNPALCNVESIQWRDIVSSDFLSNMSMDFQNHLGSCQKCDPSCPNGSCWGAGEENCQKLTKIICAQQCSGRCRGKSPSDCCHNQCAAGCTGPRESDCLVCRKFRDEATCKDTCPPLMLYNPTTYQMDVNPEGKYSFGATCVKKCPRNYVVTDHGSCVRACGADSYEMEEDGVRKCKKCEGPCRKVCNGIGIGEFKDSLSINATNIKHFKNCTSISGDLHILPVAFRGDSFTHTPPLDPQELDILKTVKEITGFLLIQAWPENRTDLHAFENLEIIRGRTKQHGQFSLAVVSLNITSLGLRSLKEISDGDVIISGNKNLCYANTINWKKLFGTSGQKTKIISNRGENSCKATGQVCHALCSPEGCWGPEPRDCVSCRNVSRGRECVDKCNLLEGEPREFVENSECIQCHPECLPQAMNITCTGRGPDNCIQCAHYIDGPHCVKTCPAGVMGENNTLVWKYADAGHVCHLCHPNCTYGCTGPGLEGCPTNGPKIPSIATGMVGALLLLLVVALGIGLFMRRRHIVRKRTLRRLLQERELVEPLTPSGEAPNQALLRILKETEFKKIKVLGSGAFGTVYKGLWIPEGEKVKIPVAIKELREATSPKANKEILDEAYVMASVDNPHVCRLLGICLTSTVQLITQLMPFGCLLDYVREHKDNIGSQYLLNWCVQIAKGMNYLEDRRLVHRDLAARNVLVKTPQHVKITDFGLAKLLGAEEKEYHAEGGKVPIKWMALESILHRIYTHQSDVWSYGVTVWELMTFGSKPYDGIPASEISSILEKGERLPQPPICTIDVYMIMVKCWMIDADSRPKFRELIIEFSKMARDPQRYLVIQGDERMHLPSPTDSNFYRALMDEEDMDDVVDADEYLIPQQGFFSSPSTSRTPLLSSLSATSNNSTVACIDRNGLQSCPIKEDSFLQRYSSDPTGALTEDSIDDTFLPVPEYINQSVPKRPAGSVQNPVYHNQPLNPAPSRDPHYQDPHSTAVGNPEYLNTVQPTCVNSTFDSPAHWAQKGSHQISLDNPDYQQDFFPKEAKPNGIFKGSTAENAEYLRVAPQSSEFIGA
Description: as §2, §3, §4

FGFR1 = biological target: T8, FGFR1 (Homo sapiens, UniProt P11362); test: In vitro kinase assay (Z′-LYTE); type: biochemical; details: read-out: % of inhibition of the kinase compared to the control
T8 construct: purchased Invitrogen
T8 sequence (P11362 22-822): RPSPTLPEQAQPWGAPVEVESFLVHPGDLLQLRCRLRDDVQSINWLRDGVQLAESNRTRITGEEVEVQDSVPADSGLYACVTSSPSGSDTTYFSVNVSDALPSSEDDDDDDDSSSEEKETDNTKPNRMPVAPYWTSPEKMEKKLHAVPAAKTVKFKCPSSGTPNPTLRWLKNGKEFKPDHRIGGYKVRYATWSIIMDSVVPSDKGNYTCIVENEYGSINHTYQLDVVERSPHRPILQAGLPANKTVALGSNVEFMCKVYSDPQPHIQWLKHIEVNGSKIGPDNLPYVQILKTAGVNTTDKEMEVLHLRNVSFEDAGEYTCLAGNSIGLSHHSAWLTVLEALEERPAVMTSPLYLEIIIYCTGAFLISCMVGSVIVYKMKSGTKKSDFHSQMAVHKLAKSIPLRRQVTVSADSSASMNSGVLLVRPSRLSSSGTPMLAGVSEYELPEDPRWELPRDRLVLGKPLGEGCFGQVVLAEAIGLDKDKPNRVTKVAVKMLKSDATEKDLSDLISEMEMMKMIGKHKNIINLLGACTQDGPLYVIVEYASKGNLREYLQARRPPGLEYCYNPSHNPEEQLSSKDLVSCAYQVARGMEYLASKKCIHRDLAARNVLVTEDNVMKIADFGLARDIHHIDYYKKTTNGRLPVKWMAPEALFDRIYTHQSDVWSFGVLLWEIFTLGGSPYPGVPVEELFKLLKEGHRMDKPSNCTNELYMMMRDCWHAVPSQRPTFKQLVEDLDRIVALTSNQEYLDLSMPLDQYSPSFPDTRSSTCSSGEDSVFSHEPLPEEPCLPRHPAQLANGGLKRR
Description: as §2, §3, §4

PDGFRB = biological target: T9, PDGFRB (Homo sapiens, UniProt P09619); test: In vitro kinase assay (Z′-LYTE); type: biochemical; details: read-out: % of inhibition of the kinase compared to the control
T9 construct: purchased Invitrogen
T9 sequence (P09619 33-1106): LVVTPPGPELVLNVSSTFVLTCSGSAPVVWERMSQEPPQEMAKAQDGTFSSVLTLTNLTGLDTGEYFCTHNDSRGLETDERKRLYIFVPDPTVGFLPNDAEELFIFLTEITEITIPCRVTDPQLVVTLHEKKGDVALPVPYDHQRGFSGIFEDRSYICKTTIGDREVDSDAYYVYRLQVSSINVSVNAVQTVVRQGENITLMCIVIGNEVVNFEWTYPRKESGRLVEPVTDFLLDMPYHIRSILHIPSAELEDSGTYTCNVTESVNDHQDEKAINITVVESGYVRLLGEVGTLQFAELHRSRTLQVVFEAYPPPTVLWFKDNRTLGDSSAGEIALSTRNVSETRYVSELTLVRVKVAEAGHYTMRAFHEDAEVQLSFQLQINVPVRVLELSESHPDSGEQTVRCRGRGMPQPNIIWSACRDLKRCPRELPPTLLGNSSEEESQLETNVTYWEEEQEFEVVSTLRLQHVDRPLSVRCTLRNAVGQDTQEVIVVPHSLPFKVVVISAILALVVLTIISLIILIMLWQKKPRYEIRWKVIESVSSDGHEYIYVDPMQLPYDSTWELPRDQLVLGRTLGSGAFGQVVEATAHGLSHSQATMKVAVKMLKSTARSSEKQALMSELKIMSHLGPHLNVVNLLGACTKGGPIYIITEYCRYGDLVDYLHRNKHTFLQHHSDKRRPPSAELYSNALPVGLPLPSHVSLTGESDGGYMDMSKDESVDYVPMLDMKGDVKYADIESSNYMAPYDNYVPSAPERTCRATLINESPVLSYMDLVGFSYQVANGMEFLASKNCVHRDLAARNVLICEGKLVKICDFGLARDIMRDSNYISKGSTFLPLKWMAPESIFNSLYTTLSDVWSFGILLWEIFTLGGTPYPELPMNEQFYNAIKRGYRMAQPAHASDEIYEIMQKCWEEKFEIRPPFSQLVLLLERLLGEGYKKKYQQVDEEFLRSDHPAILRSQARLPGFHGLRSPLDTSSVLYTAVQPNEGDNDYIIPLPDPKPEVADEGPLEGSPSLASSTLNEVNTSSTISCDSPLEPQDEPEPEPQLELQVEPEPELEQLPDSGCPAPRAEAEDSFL
Description: as §2, §3, §4

ABL = biological target: T10, ABL (Homo sapiens, UniProt P00519); test: In vitro kinase assay (Z′-LYTE); type: biochemical; details: read-out: % of inhibition of the kinase compared to the control
T10 construct: purchased Invitrogen
Description: as §2, §3, §4

SRC = biological target: T11, SRC (Homo sapiens, UniProt P12931); test: In vitro kinase assay (Z′-LYTE); type: biochemical; details: read-out: % of inhibition of the kinase compared to the control
T11 construct: purchased Invitrogen
T11 sequence (P12931 whole entry): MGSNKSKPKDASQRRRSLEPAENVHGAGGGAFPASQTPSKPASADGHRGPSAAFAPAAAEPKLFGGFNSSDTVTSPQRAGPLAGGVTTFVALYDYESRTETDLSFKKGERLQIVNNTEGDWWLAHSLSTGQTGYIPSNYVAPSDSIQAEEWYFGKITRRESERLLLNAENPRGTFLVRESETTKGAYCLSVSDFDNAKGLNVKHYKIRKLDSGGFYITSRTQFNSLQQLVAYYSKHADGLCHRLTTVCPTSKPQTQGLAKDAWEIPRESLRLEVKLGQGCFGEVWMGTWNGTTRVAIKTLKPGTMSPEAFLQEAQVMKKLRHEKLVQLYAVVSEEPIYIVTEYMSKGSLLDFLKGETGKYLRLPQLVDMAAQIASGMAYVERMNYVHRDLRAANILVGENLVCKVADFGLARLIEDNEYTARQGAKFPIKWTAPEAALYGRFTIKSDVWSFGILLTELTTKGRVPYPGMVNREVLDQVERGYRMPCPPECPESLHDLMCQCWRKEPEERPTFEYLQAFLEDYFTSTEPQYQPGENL
Description: as §2, §3, §4

FGFR2 = biological target: T12, FGFR2 (Homo sapiens, UniProt P21802); test: In vitro kinase assay (Z′-LYTE); type: biochemical; details: read-out: % of inhibition of the kinase compared to the control
T12 construct: purchased Invitrogen
Description: as §2, §3, §4

| SMILES | EC50 (H1975) [µM] | EC50 (HUVEC) [µM] | EC50 (BxPC-3) [µM] | EC50 (HepG2) [µM] | EC50 (A549) [µM] | EC50 (HT29) [µM] | inhibition at 0.1 µM (EGFR (ErbB1) T790M L858R) [%] | inhibition at 0.1 µM (KDR (VEGFR2)) [%] | inhibition at 0.1 µM (VEGFR1) [%] | inhibition at 10 µM (ABL T315I) [%] | inhibition at 0.1 µM (BRAF) [%] | inhibition at 0.1 µM (PDGFRA (PDGFR alpha)) [%] | inhibition at 0.1 µM (EGFR (ErbB1)) [%] | inhibition at 0.1 µM (FGFR1) [%] | inhibition at 0.1 µM (PDGFRB) [%] | inhibition at 10 µM (ABL) [%] | inhibition at 0.1 µM (SRC) [%] | inhibition at 0.1 µM (FGFR2) [%] |
| --- | --- | --- | --- | --- | --- | --- | --- | --- | --- | --- | --- | --- | --- | --- | --- | --- | --- | --- |
| C#Cc1cccc(Nc2ncnc3cc(OCCOC)c(OCCOC)cc23)c1 [Erlotinib, reference compound] | ≥ 1 | ≥ 1 | ≥ 1 | – | – | – | – | – | – | – | – | – | – | – | – | – | – | – |
| COC(=O)c1cc2cc(NCc3cc(NC(=O)c4ccc(CN5CCOCC5)c(C(F)(F)F)c4)ccc3C)cnc2[nH]1 [OR0598] | 0.1 to 1 | ≤ 0.1 | 0.1 to 1 | 0.1 to 1 | 0.1 to 1 | 0.1 to 1 | < 50 | < 50 | < 50 | ≥ 50 | < 50 | ≥ 50 | ≥ 50 | < 50 | < 50 | ≥ 50 | ≥ 50 | < 50 |
| COC(=O)c1cc2cc(NCc3cc(NC(=O)Cc4cccc(C(F)(F)F)c4)ccc3C)cnc2[nH]1 [OR0601] | ≥ 1 | ≤ 0.1 | ≥ 1 | ≤ 0.1 | 0.1 to 1 | 0.1 to 1 | < 50 | < 50 | < 50 | < 50 | ≥ 50 | ≥ 50 | < 50 | < 50 | < 50 | ≥ 50 | ≥ 50 | < 50 |
| COC(=O)c1cc2cc(NCc3cc(NC(=O)c4cccc(Br)c4)ccc3C)cnc2[nH]1 [OR0608] | ≥ 1 | 0.1 to 1 | 0.1 to 1 | 0.1 to 1 | 0.1 to 1 | ≥ 1 | < 50 | ≥ 50 | < 50 | < 50 | ≥ 50 | ≥ 50 | < 50 | < 50 | < 50 | ≥ 50 | ≥ 50 | < 50 |
| COC(=O)c1cc2cc(NCc3cc(NC(=O)C4CCC(C(F)(F)F)CC4)ccc3C)cnc2[nH]1 (centres unmarked) [OR0612] | ≥ 1 | 0.1 to 1 | 0.1 to 1 | 0.1 to 1 | 0.1 to 1 | ≥ 1 | < 50 | < 50 | < 50 | < 50 | < 50 | ≥ 50 | < 50 | < 50 | < 50 | ≥ 50 | ≥ 50 | < 50 |
| COC(=O)c1cc2cc(NCc3ccc(C)c(NC(=O)c4ccc(CN5CCN(C)CC5)c(C(F)(F)F)c4)c3)cnc2[nH]1 [OR0622] | ≥ 1 | 0.1 to 1 | ≥ 1 | ≥ 1 | ≥ 1 | ≥ 1 | < 50 | ≥ 50 | < 50 | ≥ 50 | < 50 | ≥ 50 | < 50 | ≥ 50 | < 50 | ≥ 50 | ≥ 50 | ≥ 50 |
| COC(=O)c1cc2cc(NCc3cc(NC(=O)c4ccc(CNCCN5CCN(C)CC5)c(C(F)(F)F)c4)ccc3C)cnc2[nH]1 [OR0637] | ≥ 1 | 0.1 to 1 | ≥ 1 | 0.1 to 1 | 0.1 to 1 | 0.1 to 1 | ≥ 50 | ≥ 50 | < 50 | ≥ 50 | ≥ 50 | ≥ 50 | ≥ 50 | < 50 | ≥ 50 | ≥ 50 | ≥ 50 | < 50 |
| COC(=O)c1cc2cc(NC(=O)c3cc(NC(=S)c4cc(-n5cnc(C)c5)cc(C(F)(F)F)c4)ccc3C)cnc2[nH]1 [OR0643] | – | – | ≥ 1 | – | – | – | < 50 | < 50 | < 50 | < 50 | < 50 | < 50 | < 50 | < 50 | < 50 | ≥ 50 | < 50 | < 50 |
| CCCOC(=O)c1cc2cc(NCc3cc(NC(=O)c4ccc(CN5CCN(C)CC5)c(C(F)(F)F)c4)ccc3C)cnc2[nH]1 [OR0697, 5-{2-methyl-5-[4-(4-methyl-piperazin-1-ylmethyl)-3-trifluoromethyl-benzoylamino]-benzylamino}-1H-pyrrolo[2,3-b]pyridine-2-carboxylic acid propyl ester] | ≥ 1 | 0.1 to 1 | 0.1 to 1 | 0.1 to 1 | 0.1 to 1 | 0.1 to 1 | < 50 | < 50 | – | – | < 50 | < 50 | ≥ 50 | – | – | – | ≥ 50 | < 50 |
